# ChEMBL document CHEMBL4190201, “Anti-inflammatory 12,20-Epoxypregnane and 11,12-seco-Pregnane Glycosides from the Stems of Hoya kerrii” (J Nat Prod, 2017)
# Legend:
# [1] = system: RAW264.7; assay: Antiinflammatory activity in mouse RAW264.7 cells assessed as inhibition of LPS-induced nitric oxide production by measuring nitrite accumulation by Griess method; format: functional, cell-based
# [2] = system: RAW264.7; assay: Cytotoxicity in LPS-stimulated mouse RAW264.7 cells at =>100 uM by MTT assay; format: cell-based
# [3] = system: RAW264.7; assay: Antiinflammatory activity in mouse RAW264.7 cells assessed as inhibition of LPS-induced COX2 mRNA expression after 20 hrs by RT-PCR method; format: functional, cell-based
# [4] = system: RAW264.7; assay: Antiinflammatory activity in mouse RAW264.7 cells assessed as inhibition of LPS-induced iNOS mRNA expression after 20 hrs by RT-PCR method; format: functional, cell-based
# [5] = system: RAW264.7; assay: Cytotoxicity in LPS-stimulated mouse RAW264.7 cells at =>10 uM by MTT assay; format: cell-based
SMILES,IC50 ([1]; read-out: IC50) [µM],further results
CO[C@@H]1C[C@H](O[C@H]2CC[C@@]3(C)C(=CC[C@@H]4[C@@H]3C(=O)O[C@@]43CC[C@H]4[C@H](C)OC(=O)[C@]43C)C2)O[C@H](C)[C@@H]1O,93.8,–
CO[C@@H]1C[C@H](O[C@H]2CC[C@@]3(C)C(=CC[C@]4(O)[C@@H]3C(=O)[C@@H]3OC(C)[C@@H]5CC[C@@]4(O)[C@]35C)C2)O[C@H](C)[C@@H]1O[C@@H]1O[C@H](CO)[C@@H](O)[C@H](O)[C@H]1O (stereo partly drawn),> 100,–
COC(=O)[C@H]1[C@@H](C(=O)CC[C@H]2[C@H](C)OC(=O)[C@H]2C)CC=C2C[C@@H](O[C@H]3C[C@@H](OC)[C@@H](OC(C)=O)[C@@H](C)O3)CC[C@@]21C,12.6,Activity [2]: Toxic; Activity [3]: Dose-dependent effect; Activity [4]: Dose-dependent effect
CC(=O)Oc1ccccc1C(=O)O [ASPIRIN],–,IC50 [1]: 43.2 µM
CO[C@@H]1C[C@H](O[C@H]2CC[C@@]3(C)C(=CC[C@@H]4[C@@H]3C(=O)[C@]3(O)O[C@H](C)[C@@H]5CC[C@@]4(O)[C@@]53C)C2)O[C@H](C)[C@@H]1O,84,–
COC(=O)[C@H]1[C@@H](C(=O)CC[C@H]2[C@H](C)OC(=O)[C@@H]2C)CC=C2C[C@@H](O[C@H]3C[C@@H](OC)[C@@H](O)[C@@H](C)O3)CC[C@@]21C,87.3,Activity [5]: Toxic
COC(=O)[C@H]1[C@@H](C(=O)CC[C@H]2[C@H](C)OC(=O)[C@H]2C)CC=C2C[C@@H](O[C@H]3C[C@@H](OC)[C@@H](O)[C@@H](C)O3)CC[C@@]21C,66.1,–
CO[C@@H]1C[C@H](O[C@H]2CC[C@@]3(C)C(=CC[C@@H]4[C@@H]3C(=O)[C@@H]3O[C@H](C)[C@@H]5CC[C@@]4(O)[C@]35C)C2)O[C@H](C)[C@@H]1O,96.5,Activity [2]: Toxic
CC(C)Cc1ccc(C(C)C(=O)O)cc1 (stereo not drawn) [IBUPROFEN],54.5,–
CO[C@@H]1C[C@H](O[C@H]2CC[C@@]3(C)C(=CC[C@]4(O)[C@@H]3C(=O)[C@@H]3O[C@H](C)[C@@H]5CC[C@@]4(O)[C@]35C)C2)O[C@H](C)[C@@H]1O,62.5,–
N=C(NCCC[C@H](N)C(=O)O)N[N+](=O)[O-] [NITROARGININE],37.7,–
COc1ccc2c(c1)c(CC(=O)O)c(C)n2C(=O)c1ccc(Cl)cc1 [INDOMETHACIN],46.5,–
O=C(/C=C/c1ccc(O)c(O)c1)OCCc1ccccc1 [CAFFEIC ACID PHENETHYL ESTER],9.3,–
COC(=O)[C@H]1[C@@H](C(=O)CC[C@H]2[C@H](C)OC(=O)[C@@H]2C)CC=C2C[C@@H](O[C@H]3C[C@@H](OC)[C@@H](OC(C)=O)[C@@H](C)O3)CC[C@@]21C,31.6,–
CO[C@@H]1C[C@H](O[C@H]2CC[C@@]3(C)C(=CC[C@]4(O)[C@@H]3C(=O)[C@@H]3O[C@H](C)[C@@H]5CC[C@@]4(O)[C@]35C)C2)O[C@H](C)[C@@H]1OC(C)=O,87.8,–
CO[C@@H]1C[C@H](O[C@H]2CC[C@@]3(C)C(=CC[C@@H]4[C@@H]3C(=O)[C@@H]3O[C@H](C)[C@@H]5CC[C@@]4(O)[C@]35C)C2)O[C@H](C)[C@@H]1O[C@@H]1O[C@H](CO)[C@@H](O)[C@H](O)[C@H]1O,> 100,–
CO[C@@H]1C[C@H](O[C@H]2CC[C@@]3(C)C(=CC[C@@H]4[C@@H]3C(=O)O[C@@]43CC[C@H]4[C@H](C)OC(=O)[C@]43C)C2)O[C@H](C)[C@@H]1OC(C)=O,60.4,–
CO[C@@H]1C[C@H](O[C@H]2CC[C@@]3(C)C(=CC[C@@H]4[C@@H]3C(=O)[C@@H]3O[C@H](C)[C@@H]5CC[C@@]4(O)[C@]35C)C2)O[C@H](C)[C@@H]1OC(C)=O,91.2,–
